Experimental data as given in patent publication US12241888B2, “Platform for assessment of the transcytosis of extracellular vesicles across endothelial barriers and uses thereof” (Children's Medical Center Corporation, priority 2018, dated 2025).

System: brain EC monolayer
Assay: Transcytosis assay with chemical-inhibition of endocytosis
Assay type: cell-based, Human
Conditions: endothelial cells pretreated with increasing doses of endocytosis inhibitor
Protocol: The model was optimized for this novel application. […] The cells become confluent in 48-72 hours. […] A-2) Transcytosis assay with chemical-inhibition of endocytosis: Transcytosis occurs following the uptake of macromolecules or EVs via endocytosis. […] A variety of chemicals that target different steps of endocytosis (e.g. Dynasore, filipin, etc.) can be used to pretreat the endothelial cells in the transwell® model to inhibit endocytosis prior to the transcytosis assay. […] It is worth to note that the endocytosis of EVs depends on the interaction of EV surface proteins with endothelial cell receptors, which depending on the EV proteins involved can go through different routes of endocytosis (clathrin-dependent, clathrin-independent, etc.).

## O=C(N/N=C/c1ccc(O)c(O)c1)c1cc2ccccc2cc1O [Dynasore]
  fluorescence intensity in the lower chamber (EV transcytosis signal): decreased with increasing doses
